Measured values: ChEMBL document CHEMBL1201862, “PubChem BioAssay data set” (2004)
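Protocol summary: plate cells (96-well), add compound at 5 concentrations, incubate 48 h, interpolate endpoints linearly. GI50 is the concentration that inhibits growth by half.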 Activity calls are given as the source filed them. Rule as the data show it: active = GI50 up to about 1.1 µM and inactive = higher.

What was measured:
Assay in all cases: NCI-60 cell line screen, 48 h
HCT-15 = tested on: HCT-15
DU-145 = tested on: DU-145
COLO 205 = tested on: COLO 205
A498 = tested on: A498
HOP-62 = tested on: HOP-62
NCI/ADR-RES = tested on: NCI/ADR-RES
NCI-H460 = tested on: NCI-H460
SK-MEL-28 = tested on: SK-MEL-28
OVCAR-8 = tested on: OVCAR-8
786-0 = tested on: 786-0
MDA-MB-435 = tested on: MDA-MB-435
KM12 = tested on: KM12
IGROV-1 = tested on: IGROV-1
CCRF-CEM = tested on: CCRF-CEM
PC-3 = tested on: PC-3
Hs-578T = tested on: Hs-578T
SK-MEL-2 = tested on: SK-MEL-2
HCC 2998 = tested on: HCC 2998
HL-60 = tested on: HL-60

Compound | GI50 (HCT-15) [µM] | GI50 (DU-145) | GI50 (COLO 205) | GI50 (A498) | GI50 (HOP-62) | GI50 (NCI/ADR-RES) | GI50 (NCI-H460) | GI50 (SK-MEL-28) | GI50 (OVCAR-8) | GI50 (786-0) | GI50 (MDA-MB-435) | GI50 (KM12) | GI50 (IGROV-1) | GI50 (CCRF-CEM) | GI50 (PC-3) | GI50 (Hs-578T) | GI50 (SK-MEL-2) | GI50 (HCC 2998) | GI50 (HL-60)
Cn1c2ccccc2n2c(=O)c3cccnc3c(C#N)c12 | 37.8 | > 100 µM (inactive) | 24.7 µM (inactive) | > 100 µM (inactive) | 76.2 µM (inactive) | 70.3 µM (inactive) | 18.7 µM (inactive) | > 100 µM (inactive) | 40.3 µM (inactive) | > 100 µM (inactive) | > 100 µM (inactive) | > 100 µM (inactive) |  |  |  |  |  |  | 
Cn1c2ccccc2n2c3ncccc3c(=O)cc12 | 31 | 49.5 µM (inactive) | 60.4 µM (inactive) | 24.6 µM (inactive) | 32.1 µM (inactive) | 50.4 µM (inactive) | 33 µM (inactive) | > 100 µM (inactive) | 46.3 µM (inactive) | 37.3 µM (inactive) | 61.5 µM (inactive) | 71.9 µM (inactive) | 28.9 µM (inactive) |  |  |  |  |  | 
COC(=O)C1C(O)CCC2CN3CCc4c([nH]c5cccc(OC)c45)C3CC21 (stereo not drawn) | > 100 | > 100 µM (inactive) | > 100 µM (inactive) | > 100 µM (inactive) | > 100 µM (inactive) |  | > 100 µM (inactive) | > 100 µM (inactive) | > 100 µM (inactive) | > 100 µM (inactive) | > 100 µM (inactive) | > 100 µM (inactive) | > 100 µM (inactive) | > 100 µM (inactive) | > 100 µM (inactive) | > 100 µM (inactive) | > 100 µM (inactive) | > 100 µM (inactive) | > 100 µM (inactive)
CCOC(=O)c1c2cccccc2n2c(=O)cc(C)nc12 | > 100 |  | > 100 µM (inactive) | > 100 µM (inactive) | > 100 µM (inactive) |  | > 100 µM (inactive) | > 100 µM (inactive) | > 100 µM (inactive) | > 100 µM (inactive) |  | > 100 µM (inactive) | > 100 µM (inactive) | > 100 µM (inactive) |  |  | > 100 µM (inactive) | > 100 µM (inactive) | > 100 µM (inactive)
NC(=O)CC1(O)C=CC(=O)C=C1 | > 100 | > 100 µM (inactive) | > 100 µM (inactive) | > 100 µM (inactive) | > 100 µM (inactive) | > 100 µM (inactive) | > 100 µM (inactive) | > 100 µM (inactive) | > 100 µM (inactive) | > 100 µM (inactive) | > 100 µM (inactive) | > 100 µM (inactive) | > 100 µM (inactive) | > 100 µM (inactive) | > 100 µM (inactive) |  | > 100 µM (inactive) | > 100 µM (inactive) | > 100 µM (inactive)
Cc1ccc(/C=N/Nc2cc(C)c3ccccc3n2)s1 | 7.36 | > 10 µM (inactive) | 4.71 µM (inactive) |  | 15.7 µM (inactive) | 11.1 µM (inactive) |  | 20.3 µM (inactive) | 23.2 µM (inactive) | 18.7 µM (inactive) | 21.2 µM (inactive) | 16.4 µM (inactive) | 10.2 µM (inactive) | 13.1 µM (inactive) | 14 µM (inactive) | 31.5 µM (inactive) | 34.1 µM (inactive) | 15.3 µM (inactive) | 33.2 µM (inactive)
Cc1c(C#N)c2nc3ccccc3n2c(=O)/c1=C/Nc1ccc(Cl)cc1 | 8.65 |  | 95.1 µM (inactive) | 15.9 µM (inactive) | 12.9 µM (inactive) | 95.7 µM (inactive) | 29.2 µM (inactive) | > 100 µM (inactive) | 51.3 µM (inactive) | 6.25 µM (inactive) | 94.4 µM (inactive) | 6.61 µM (inactive) | 36.1 µM (inactive) |  |  | 10.8 µM (inactive) | 14.2 µM (inactive) | > 100 µM (inactive) | > 100 µM (inactive)
O=C1Nc2c(Cl)cc(Cl)cc2/C1=N/N=C/c1ccco1 | 28.8 |  | 22.4 µM (inactive) | 21.2 µM (inactive) | 34.7 µM (inactive) | 21.4 µM (inactive) | 28.2 µM (inactive) | 33 µM (inactive) | 22.8 µM (inactive) | 38.8 µM (inactive) | 29.9 µM (inactive) | 25.4 µM (inactive) | 27.5 µM (inactive) | 29 µM (inactive) | 29.8 µM (inactive) | 32.7 µM (inactive) | 24.4 µM (inactive) | 37.3 µM (inactive) | 29.7 µM (inactive)
CC(=O)c1sc2c(c1OC(=O)c1ccco1)c(=O)n(-c1ccccc1)c(=S)n2-c1ccccc1 | 18.7 | 26.8 µM (inactive) | 17.4 µM (inactive) |  | 25.1 µM (inactive) | 18.4 µM (inactive) | 31 µM (inactive) | 23.8 µM (inactive) | 30.3 µM (inactive) | 26.7 µM (inactive) | 15 µM (inactive) | 21.1 µM (inactive) | 23.1 µM (inactive) | 3.93 µM (inactive) | 16.9 µM (inactive) | 2.28 µM (inactive) | 10.4 µM (inactive) |  | 19.8 µM (inactive)
